Measured values: ChEMBL document CHEMBL3045426, “Synthesis, Antiviral and Antibacterial Activities of Isatin Mannich Bases” (Med Chem Res, 2005)
≈ marks a conversion by molar mass, not a printed value.

Tests used:
[1] = system: Vibrio fluvialis; assay: Antimicrobial activity against Vibrio fluvialis after 18 to 20 hr by agar dilution method; format: functional
[2] = system: Priestia megaterium; assay: Antimicrobial activity against Bacillus megaterium after 18 to 20 hr by agar dilution method; format: functional
[3] = system: Human immunodeficiency virus 1; assay: Antiviral activity against Human immunodeficiency virus 1 IIIB infected CEM cells assessed as inhibition of virus-induced cytopathicity after 6 days by XTT assay; format: functional, organism-based; settings: CCRF-CEM, 144 h
[4] = system: Vibrio cholerae; assay: Antimicrobial activity against Vibrio cholerae 0139 after 18 to 20 hr by agar dilution method; format: functional; settings: 139
[5] = Cytotoxicity against Homo sapiens (human) MT4 cells after 5 days by MTT assay; format: cell-based
[6] = system: Mycobacterium tuberculosis; assay: Antimycobacterial activity against Mycobacterium tuberculosis H37Rv ATCC 27294 at 6.25 ug/ml by MABA; format: functional
[7] = system: Salmonella typhi; assay: Antimicrobial activity against Salmonella enterica subsp. enterica serovar Typhi after 18 to 20 hr by agar dilution method; format: functional
[8] = system: Human immunodeficiency virus 1; assay: Antiviral activity against Human immunodeficiency virus 1 IIIB infected MT4 cells assessed as inhibition of virus-induced cytopathicity after 5 days by MTT assay; format: functional, organism-based; settings: MT4, 120 h
[9] = system: Salmonella enteritidis; assay: Antimicrobial activity against Salmonella enterica subsp. enterica serovar Enteritidis after 18 to 20 hr by agar dilution method; format: functional
[10] = system: Vibrio mimicus; assay: Antimicrobial activity against Vibrio mimicus after 18 to 20 hr by agar dilution method; format: functional
[11] = system: Plesiomonas; assay: Antimicrobial activity against Plesiomonas after 18 to 20 hr by agar dilution method; format: functional
[12] = system: Pseudomonas aeruginosa; assay: Antimicrobial activity against Pseudomonas aeruginosa after 18 to 20 hr by agar dilution method; format: functional
[13] = system: Human immunodeficiency virus 1; assay: Antiviral activity against Human immunodeficiency virus 1 IIIB infected MT4 cells assessed as protection against viral infection after 5 days by MTT assay; format: functional; design: concentration or dose not given beside the values
[14] = system: Edwardsiella tarda; assay: Antimicrobial activity against Edwardsiella tarda after 18 to 20 hr by agar dilution method; format: functional
[15] = system: Salmonella paratyphi; assay: Antimicrobial activity against Salmonella enterica subsp. enterica serovar Paratyphi A after 18 to 20 hr by agar dilution method; format: functional
[16] = system: Shigella sonnei; assay: Antimicrobial activity against Shigella sonnei after 18 to 20 hr by agar dilution method; format: functional
[17] = system: Citrobacter freundii; assay: Antimicrobial activity against Citrobacter freundii after 18 to 20 hr by agar dilution method; format: functional
[18] = system: Morganella morganii; assay: Antimicrobial activity against Morganella morganii after 18 to 20 hr by agar dilution method; format: functional
[19] = system: Hepatitis C virus; assay: Antiviral activity against Hepatitis C virus BM4-5 infected in Huh7 cells assessed as inhibition of viral RNA replication by phosphor screening method; format: functional, Hepacivirus hominis, Huh-7
[20] = system: Klebsiella pneumoniae; assay: Antimicrobial activity against Klebsiella pneumoniae after 18 to 20 hr by agar dilution method; format: functional
[21] = system: Salmonella typhimurium; assay: Antimicrobial activity against Salmonella enterica subsp. enterica serovar Typhimurium after 18 to 20 hr by agar dilution method; format: functional
[22] = Cytotoxicity against Homo sapiens (human) HuH7 cells assessed as cell growth at 50 ug/ml after 3 days by Neutral red assay; format: cell-based, Huh-7; settings: read-out: Activity
[23] = system: Proteus vulgaris; assay: Antimicrobial activity against Proteus vulgaris after 18 to 20 hr by agar dilution method; format: functional
[24] = system: Klebsiella pneumoniae; assay: Antimicrobial activity against Klebsiella pneumoniae subsp. ozaenae after 18 to 20 hr by agar dilution method; format: functional
[25] = system: Staphylococcus aureus; assay: Antimicrobial activity against Staphylococcus aureus after 18 to 20 hr by agar dilution method; format: functional
[26] = system: Vibrio parahaemolyticus; assay: Antimicrobial activity against Vibrio parahaemolyticus after 18 to 20 hr by agar dilution method; format: functional
[27] = Cytotoxicity against Homo sapiens (human) CEM cells after 5 days by MTT assay; format: cell-based; settings: CEM cells (CCRF-CEM)
[28] = system: Shigella boydii; assay: Antimicrobial activity against Shigella boydii after 18 to 20 hr by agar dilution method; format: functional
[29] = system: Escherichia coli; assay: Antimicrobial activity against Escherichia coli NCTC 10418 after 18 to 20 hr by agar dilution method; format: functional
[30] = system: Vibrio cholerae; assay: Antimicrobial activity against Vibrio cholerae 01 after 18 to 20 hr by agar dilution method; format: functional; settings: 1
[31] = system: Enterobacter; assay: Antimicrobial activity against Enterobacter after 18 to 20 hr by agar dilution method; format: functional
[32] = system: Proteus mirabilis; assay: Antimicrobial activity against Proteus mirabilis after 18 to 20 hr by agar dilution method; format: functional
[33] = system: Human immunodeficiency virus 1; assay: Antiviral activity against Human immunodeficiency virus 1 IIIB infected CEM cells assessed as protection against viral infection after 6 days by XTT assay; format: functional, CCRF-CEM; design: concentration or dose not given beside the values

Row | Structure (SMILES) | MIC [1] [µg/mL] | MIC [2] [µg/mL] | EC50 [3] [µg/mL] | MIC [4] [µg/mL] | CC50 at 120 h [5] [µg/mL] | inhibition at 6.25 µg/mL [6] [%] | MIC [7] [µg/mL] | EC50 [8] [µg/mL] | MIC [9] [µg/mL] | MIC [10] [µg/mL] | MIC [11] [µg/mL] | MIC [12] [µg/mL] | Activity [13] [%] | MIC [14] [µg/mL] | MIC [15] [µg/mL] | MIC [16] [µg/mL] | MIC [17] [µg/mL] | MIC [18] [µg/mL] | inhibition (INH) [19] [%] | MIC [20] [µg/mL] | also measured
1 | COc1cc(Cc2cnc(/N=C3\C(=O)N(CN4CCN(c5ccc(Cl)cc5)CC4)c4ccc(Cl)cc43)nc2N)cc(OC)c1OC | 1250 (≈ 1890 µM) | 1250 (≈ 1890 µM) | > 40.1 | 1250 (≈ 1890 µM) | 38.6 (≈ 58.3 µM) | 40 | 1250 (≈ 1890 µM) | > 38.6 | 1250 (≈ 1890 µM) | 9.76 (≈ 14.7 µM) | 19.5 (≈ 29.5 µM) | 2500 (≈ 3770 µM) | 32.6 | 625 (≈ 943 µM) | 625 (≈ 943 µM) | 1250 (≈ 1890 µM) | 1250 (≈ 1890 µM) | 1250 (≈ 1890 µM) | 99 | 1250 (≈ 1890 µM) | MIC [21]: 1250 µg/mL (≈ 1890 µM); viability at 72 h, 50 ug/ml [22]: 56%; MIC [23]: 1250 µg/mL (≈ 1890 µM); MIC [24]: 1250 µg/mL (≈ 1890 µM); MIC [25]: 1250 µg/mL (≈ 1890 µM); MIC [26]: 2.44 µg/mL (≈ 3.68 µM); CC50 at 120 h [27]: 40.1 µg/mL (≈ 60.5 µM); MIC [28]: 39.1 µg/mL (≈ 59 µM); MIC [29]: 1250 µg/mL (≈ 1890 µM); MIC [30]: 4.88 µg/mL (≈ 7.37 µM); MIC [31]: 1250 µg/mL (≈ 1890 µM); MIC [32]: 1250 µg/mL (≈ 1890 µM); Activity [33]: 22.64%
2 | COc1cc(Cc2cnc(/N=C3\C(=O)N(CN4CCN(C(=O)c5ccc(F)cc5)CC4)c4ccc(Cl)cc43)nc2N)cc(OC)c1OC | 2500 (≈ 3710 µM) | 2500 (≈ 3710 µM) | > 51 | 1250 (≈ 1850 µM) | 60.6 (≈ 89.9 µM) | 38 | 2500 (≈ 3710 µM) | > 60.6 | 2500 (≈ 3710 µM) | 2.44 (≈ 3.62 µM) | 9.76 (≈ 14.5 µM) | 2500 (≈ 3710 µM) | 30.2 | 2500 (≈ 3710 µM) | 625 (≈ 927 µM) | 2500 (≈ 3710 µM) | 2500 (≈ 3710 µM) | 2500 (≈ 3710 µM) | 91 | 2500 (≈ 3710 µM) | MIC [21]: 2500 µg/mL (≈ 3710 µM); viability at 72 h, 50 ug/ml [22]: 71%; MIC [23]: 2500 µg/mL (≈ 3710 µM); MIC [24]: 2500 µg/mL (≈ 3710 µM); MIC [25]: 2500 µg/mL (≈ 3710 µM); MIC [26]: 4.88 µg/mL (≈ 7.24 µM); CC50 at 120 h [27]: 51 µg/mL (≈ 75.7 µM); MIC [28]: 39.1 µg/mL (≈ 57.9 µM); MIC [29]: 2500 µg/mL (≈ 3710 µM); MIC [30]: 39.1 µg/mL (≈ 57.9 µM); MIC [31]: 625 µg/mL (≈ 927 µM); MIC [32]: 2500 µg/mL (≈ 3710 µM); Activity [33]: 23.38%
3 | COc1cc(Cc2cnc(/N=C3\C(=O)N(CN4CCN(C)CC4)c4ccc(Cl)cc43)nc2N)cc(OC)c1OC | 1250 (≈ 2210 µM) | 1250 (≈ 2210 µM) | > 88 | 312 (≈ 552 µM) | 80.7 (≈ 143 µM) | 35 | 1250 (≈ 2210 µM) | > 80.7 | 1250 (≈ 2210 µM) | 1.22 (≈ 2.16 µM) | 4.88 (≈ 8.62 µM) | 1250 (≈ 2210 µM) | 48.6 | 625 (≈ 1100 µM) | 156 (≈ 276 µM) | 1250 (≈ 2210 µM) | 1250 (≈ 2210 µM) | 1250 (≈ 2210 µM) | 71 | 1250 (≈ 2210 µM) | MIC [21]: 1250 µg/mL (≈ 2210 µM); viability at 72 h, 50 ug/ml [22]: 83%; MIC [23]: 1250 µg/mL (≈ 2210 µM); MIC [24]: 1250 µg/mL (≈ 2210 µM); MIC [25]: 1250 µg/mL (≈ 2210 µM); MIC [26]: 0.61 µg/mL (≈ 1.08 µM); CC50 at 120 h [27]: 88 µg/mL (≈ 155 µM); MIC [28]: 19.5 µg/mL (≈ 34.5 µM); MIC [29]: 1250 µg/mL (≈ 2210 µM); MIC [30]: 1.22 µg/mL (≈ 2.16 µM); MIC [31]: 312 µg/mL (≈ 552 µM); MIC [32]: 1250 µg/mL (≈ 2210 µM); Activity [33]: 21.09%
4 | COc1cccc(N2CCN(CN3C(=O)/C(=N\c4ncc(Cc5cc(OC)c(OC)c(OC)c5)c(N)n4)c4cc(Cl)ccc43)CC2)c1 | 1250 (≈ 1900 µM) | 1250 (≈ 1900 µM) | > 23.3 | 312 (≈ 475 µM) | 32.6 (≈ 49.5 µM) | 33 | 1250 (≈ 1900 µM) | > 32.6 | 1250 (≈ 1900 µM) | 0.61 (≈ 0.927 µM) | 0.61 (≈ 0.927 µM) | 2500 (≈ 3800 µM) | 10.7 | 1250 (≈ 1900 µM) | 156 (≈ 237 µM) | 625 (≈ 950 µM) | 1250 (≈ 1900 µM) | 2500 (≈ 3800 µM) | 100 | 625 (≈ 950 µM) | MIC [21]: 2500 µg/mL (≈ 3800 µM); viability at 72 h, 50 ug/ml [22]: 71%; MIC [23]: 1250 µg/mL (≈ 1900 µM); MIC [24]: 1250 µg/mL (≈ 1900 µM); MIC [25]: 156 µg/mL (≈ 237 µM); MIC [26]: 2.44 µg/mL (≈ 3.71 µM); CC50 at 120 h [27]: 23.3 µg/mL (≈ 35.4 µM); MIC [28]: 0.61 µg/mL (≈ 0.927 µM); MIC [29]: 2500 µg/mL (≈ 3800 µM); MIC [30]: 1.22 µg/mL (≈ 1.85 µM); MIC [31]: 1250 µg/mL (≈ 1900 µM); MIC [32]: 2500 µg/mL (≈ 3800 µM); Activity [33]: 21.93%
